# Marks after values point to notes of the source that are not given here.
# Legend:
# [1] = system: DNBS-Induced Inflammatory Bowel Disease Models in Rats; assay: Biological Example 3: DNBS-induced inflammatory bowel disease models in rats; format: in vivo, Wistar rats; settings: 30 mg/Kg i.g. qd × 7; for Adhesion Degree of Colon / Colon weight to length ratio / Inhibitory rate of colon adhesion / Inhibitory rate of ulcer area of colon / Inhibitory rate of weight increase per length / Ulcer area of colon: day 7; for Body weight: Mean ± SD
# Description: 102 male Wistar rats were fasted for 40 hours. A 5% glucose injection (10 mL/Kg) was administered subcutaneously during fasting. 72 rats with normal conditions and moderate body weight were selected from the fasting rats. The animals were randomly divided into 9 groups according to the body weight (see Table 9. Grouped Table).
# The animals were anesthetized with ether after 40 hours fasting. A specially made gavage device was slowly inserted into the enteric cavity at 8 cm from the anus. The model control group and each test group were administered with 0.5 mL of 50 mg/mL DNBS in 30% ethanol solution. The normal control group was administered with 0.5 mL of 30% ethanol solution. The animals were inverted in anesthesia for 15 minutes. The day when the model was prepared was day 0 of the experiment. After 4 hours of DNBS induction, the corresponding drug or the corresponding volume of 1% CMC-Na was administered once per day. On day 7 of the experiment, the animals were euthanized to score the colon adhesion degree, measure the length of colon and ulcer area, weigh colon and calculate the colon weight to length ratio.
# One-way ANOVA analysis of the length of colon and colon weight per length of rats was performed by SPSS22. Statistical analyses between groups were performed. The adhesion degree was scored. Mann-Whitney U non-parametric test was performed on ulcer area. Statistical analyses between groups were performed.
# Calculation Formula of Inhibitory rate of weight increase per length: (Colon weight to length ratio in model group−Colon weight to length ratio in administration group)/(Colon weight to length ratio in model group−Colon weight to length ratio in blank group)
# mice = assay: Biological Example 5: acute toxicity experiment of single oral administration in mice; format: in vivo; settings: single oral 1000 mg/Kg, Mean ± SD
# Procedure, shortened: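 Fasted ICR mice (19-21 g, three females and three males per group) received a single oral dose of 1000 mg/Kg, given first to one mouse of each sex and then to the remaining four. Behaviour, nervous and autonomic signs, and deaths were recorded over 0-15 min. Animals were then observed for 7 days with daily body weight.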
SMILES,Adhesion Degree of Colon [1],Colon weight to length ratio [1],Inhibitory rate of colon adhesion [1],Inhibitory rate of ulcer area of colon [1],Inhibitory rate of weight increase per length [1],Ulcer area of colon [1],Body weight ([1]; Day 0),Body weight ([1]; Day 1),Body weight ([1]; Day 2),Body weight ([1]; Day 3),Body weight ([1]; Day 4),Body weight ([1]; Day 5),Body weight ([1]; Day 6),Body weight ([1]; Day 7),"Daily Body Weight (mice; Female mice, Day 1)","Daily Body Weight (mice; Female mice, Day 2)","Daily Body Weight (mice; Female mice, Day 3)","Daily Body Weight (mice; Female mice, Day 4)","Daily Body Weight (mice; Female mice, Day 5)","Daily Body Weight (mice; Female mice, Day 6)",also measured
"COCCN1C(=O)CCC(N2C(=O)c3cccc(F)c3C2=O)C1=O (stereo not shown) [Example 4, 4-fluoro-2-(1-(2-methoxyethyl)-2,6-dioxopiperidin-3-yl)isoindolin-1,3-dione]",0.6 ± 0.7 point,125 ± 34 mg/cm,64.7## %,81.2# %,38.0%,0.58 ± 0.78# cm^2,137.1 ± 6.2 g,136.2 ± 4.1 g,138.2 ± 6.9 g,141.1 ± 8.8 g,151.8 ± 13.4 g,162.5 ± 13.0 g,170.8 ± 13.0 g,181.0 ± 12.2 g,18.4 ± 0.4 g,21.8 ± 0.5 g,23.2 ± 0.6 g,23.5 ± 1.2 g,24.7 ± 0.9 g,24.2 ± 1.2 g,"Daily Body Weight (mice; Female mice, Day 7): 24.0 ± 0.8 g; Daily Body Weight (mice; Male mice, Day 1): 17.6 ± 0.2 g; Daily Body Weight (mice; Male mice, Day 2): 22.2 ± 0.3 g; Daily Body Weight (mice; Male mice, Day 3): 23.6 ± 0.6 g; Daily Body Weight (mice; Male mice, Day 4): 24.7 ± 0.6 g; Daily Body Weight (mice; Male mice, Day 5): 26.7 ± 0.4 g; Daily Body Weight (mice; Male mice, Day 6): 27.6 ± 0.8 g; Daily Body Weight (mice; Male mice, Day 7): 28.2 ± 0.1 g"
"Nc1cccc2c1C(=O)N(C1CCC(=O)N(CCO)C1=O)C2=O (stereo not shown) [Example 6, 4-amino-2-(1-(2-hydroxyethyl)-2,6-dioxopiperidin-3-yl)isoindolin-1,3-dione]",0.6 ± 0.5 point,99 ± 21 mg/cm,64.7# %,89.0# %,70.9## %,0.34 ± 0.54# cm^2,137.5 ± 5.6 g,138.1 ± 8.0 g,141.8 ± 13.1 g,147.4 ± 16.5 g,154.5 ± 17.7 g,164.2 ± 16.2 g,169.3 ± 18.4 g,180.9 ± 15.5 g,17.5 ± 0.9 g,21.5 ± 0.9 g,21.6 ± 1.3 g,22.0 ± 1.2 g,22.3 ± 1.9 g,22.4 ± 2.3 g,"Daily Body Weight (mice; Female mice, Day 7): 22.9 ± 2.0 g; Daily Body Weight (mice; Male mice, Day 1): 18.4 ± 0.6 g; Daily Body Weight (mice; Male mice, Day 2): 21.5 ± 0.9 g; Daily Body Weight (mice; Male mice, Day 3): 21.6 ± 1.3 g; Daily Body Weight (mice; Male mice, Day 4): 25.5 ± 0.5 g; Daily Body Weight (mice; Male mice, Day 5): 25.9 ± 0.9 g; Daily Body Weight (mice; Male mice, Day 6): 26.9 ± 1.1 g; Daily Body Weight (mice; Male mice, Day 7): 27.1 ± 1.1 g"
"COCCN1C(=O)CCC(N2C(=O)c3ccc(N)cc3C2=O)C1=O (stereo not shown) [Example 7, 5-amino-2-(1-(2-methoxyethyl)-2,6-dioxopiperidin-3-yl)isoindolin-1,3-dione]",0.9 ± 0.8 point,127 ± 52 mg/cm,47.1# %,75.1%,35.4%,0.77 ± 1.05 cm^2,136.1 ± 2.5 g,136.7 ± 3.7 g,137.0 ± 8.7 g,141.6 ± 11.9 g,148.2 ± 12.7 g,159.2 ± 13.2 g,168.0 ± 15.7 g,173.5 ± 18.5 g,,,,,,,
